Test results: patent US20230095509A1, “NON-FIBRILLAR HEMOGLOBIN S OLIGOMERS AND METHODS TO IDENTIFY MODULATORS OF HEMOGLOBIN S POLYMERIZATION” (REGENTS OF THE UNIVERSITY OF MINNESOTA, priority 2021, published 2023)
Entries after “also recorded” stand apart in the source; their conditions may differ.

How the values were obtained:
[1] = target: T1, deoxyHbS oligomers (HbS-rhodamine red / HbS-Cy5) (Homo sapiens, UniProt P68871+P69905, E7V); experiment: Fluorescence lifetime (FLT) FRET assay of deoxyHbS oligomerization (LOPAC screen and dose response); type: biochemical
T1 construct: purchased Sigma
Method: Development of HTS platform for identification of small molecules that inhibit in vitro HbS nucleation: Sickle hemoglobin (HbS) (sigma) was labeled with either fluorescent donor (rhodamine red) or acceptor (Cy5) dyes (Thermo fisher scientific) via a cysteine thiol group. For labeling, lyophilized HbS (10 mg/ml) was dissolved in PBS (Sigma) and then centrifuged at 13000 g for five minutes at 4° C. to remove the debris. After centrifugation protein sample was incubated with TCEP (0.5-1 mM) for 20 minutes at room temperature to reduce the cysteine side-chain. This protein mixture was incubated with 1.5 mM dye (dissolved in DMSO or water) for two hours in the dark at room temperature or overnight at 4° C. Unreacted free dye was removed by dialysis against PBS. The degree of labeling was calculated by comparing the absorption of the fluorophore conjugated hemoglobin at 280 nm to the absorbance of the dye at its maximum wavelength. The dye concentration was measured by absorbance, using extinction coefficients of 250,000 M −1 cm -1 for Cy5 conjugates and 88000 M −1 cm -1 for Rhodamine Red conjugates.
High-Throughput Screening of LOPAC Library to Identify Compounds That Inhibit HbS Oligomerization Under Deoxy Condition: The LOPAC compounds (Thermo Fisher Scientific) were received in 96-well plates. Assay plates were prepared by transferring 5 nL of the 10 mM compound stocks or DMSO from the source plates to 1536-well black polypropylene plates (Greiner), using an Echo 550 acoustic dispenser (Labcyte). During screening, donor sample (HbS/Rhodamine Red) was mixed with acceptor (HbS/Cy5) at 1:5 ratios. Then protein samples were dispensed (5 μL, 25 μM) by a Multidrop Combi Reagent Dispenser (Thermo Fisher Scientific) into the 1536-well assay plates containing the compounds and incubated at room temperature for two hours. After incubation, protein samples were degassed for 10-15 minutes using vacuum argon degassing method. Lifetime measurements were taken by the fluorescence lifetime plate reader (Fluorescence Innovations, Inc).
Fluorescence Data Acquisition: We tested the functionality of the HbS FRET pair by measuring lifetimes of oxy-and deoxy HbA and HbS using a fluorescence lifetime plate reader (FIG. 3A). Lifetimes are reciprocally related to FRET, so a decrease in lifetime corresponds to an increase in FRET. Donor fluorescence was excited with a 532 nm laser (Teem Photonics SNG-20F-100, Meylan, France), delivering pulses of -0.3 μJ energy at a 20 kHz repetition rate, and emission was filtered with 546 nm long pass and 586/20 nm band pass filters. This filter was selected to exclude acceptor fluorescence, as only the lifetime of the donor fluorescent protein is required to calculate FRET (Equation (1)). The photomultiplier tube (PMT) voltage was adjusted so that the peak signals of the instrument response function (IRF) and FRET biosensor were similar.
High-Throughput Screening Data Analysis: Time resolve-fluorescence waveforms for each well were fitted with single-exponential decays using least-squares minimization global analysis software (Petersen et al., F2014, Rev Sci Instrum 85, 113101). FRET efficiency (E) was determined as the fractional decrease of donor lifetime (T_D ), due to the presence of acceptor fluorophore (T_DA) using equation 1: […]
These drug compounds were dissolved in DMSO to make 20 mM stock solution. Hits were screened at seven different concentrations. Protein samples were dispensed into the 96-well assay plates and incubated with hit compounds at room temperature for two hours. After incubation, protein samples were degassed for 10 minutes using vacuum argon degassing method. Lifetime measurements were taken by the fluorescence lifetime plate reader (Fluorescence Innovations, Inc).

[2] = target: deoxy-HbS oligomers (sickle hemoglobin, HbS) (Homo sapiens, UniProt P68871+P69905, E7V); experiment: Dynamic light scattering (DLS) of deoxy-HbS oligomers at sub-nucleating concentration; type: biochemical; conditions: HbS 25 μM, hit compounds 100 μM, two hours at room temperature, degassed with argon; FIG. 4C
Method: (FIG. 4A) Pilot screening with LOPAC library. Compounds that reduced the FRET efficiency below 3SD (black line) were selected for further characterization. […] Fluorescently labeled HbS samples were plated in a 1536 plate and treated separately with DMSO or the three hit compounds, chlormezanone, gabazine, and phosphoramidon disodium, in a dose-dependent manner from 0.1 to 1000 μM for 2 hours at room temperature and then vacuum degassed for 10 minutes, and then donor lifetimes were measured using a fluorescence plate reader. […] HbS samples (25 μM) were incubated separately with hit compounds (100 μM) or DMSO only for two hours at room temperature and degassed with argon for five minutes, and then DLS measurement were taken at room temperature. […] Effect of hit compounds on polymerization of deoxyHbS in high potassium phosphate buffer. Curves represent growth of polymer as a function of time in the presence or absence of drug.

SMILES	FRET efficiency of HbS under deoxy conditions ([1]; known polymerization inhibitors as controls, FIG. 1D)	size of deoxyHbS oligomers (DLS effective diameter) relative to control [2]	FRET efficiency in dose response ([1]; 0.1 to 1000 μM, 2 hours at room temperature, then degassed, FIG. 4B)
N[C@@H](Cc1ccccc1)C(=O)O [phenylalanine]	decreased the FRET efficiency; also recorded: reduced FRET efficiency	–	–
CC(C)C[C@H](NP(=O)(O)O[C@@H]1O[C@@H](C)[C@H](O)[C@@H](O)[C@H]1O)C(=O)N[C@@H](Cc1c[nH]c2ccccc12)C(=O)O [phosphoramidon disodium]	–	significantly decreased the oligomer size	decreased FRET efficiency in a dose-dependent manner
